Measured values taken from patent US8053418B2, “Anti-penicillin resistant pneumococci agent and novel 16-membered macrolide derivative” (Microbial Chemistry Research Foundation, priority 2005, dated 2011).
Values after ≈ are worked out from the molar mass of the structure shown. Values joined by “and” are separate entries in the source; they are usually repeats but may differ in a detail not shown here. Equal entries are not always repeated. “Also recorded” adds a separate entry of the source. Where two headings read alike, the source gives them in different places.

Columns and labels:
[1] = tested on: Streptococcus pneumoniae IMC B-1234 (PRSP); experiment: Antimicrobial activity test (MIC), clinical isolate IMC B-1234; format: cell-based
Description: (§1) Using Streptococcus pneumoniae that include clinical isolates of PRSP, the antimicrobial activity of each of the prepared anti-PRSP agents was measured in accordance with the “determination method of minimum inhibitory concentration of drug against bacteria” of Japanese Society of Chemotherapy (for re-revised version, see Chemotherapy 29; 76, 1981).
(§2) 11 test strains of Streptococcus pneumoniae including IMC B-0919 are all clinical isolates, of which 2 strains, IMC B-0921 and IMC B-1229, are classified into penicillin susceptible Streptococcus pneumoniae (PSSP) and the remaining 9 strains are classified into penicillin-resistant Streptococcus pneumoniae (PRSP) (according to NCCLS standards).

[2] = tested on: Streptococcus pneumoniae IMC B-0922 (PRSP); experiment: Antimicrobial activity test (MIC), clinical isolate IMC B-0922; format: cell-based
Description: as §1, §2

[3] = tested on: general Gram-positive bacteria and Gram-negative bacteria; details: Non-Patent Literatures 1 and 2, Patent Literature 1; cited from earlier work
[4] = tested on: Streptococcus pneumoniae IMC B-0920 (PRSP); experiment: Antimicrobial activity test (MIC), clinical isolate IMC B-0920; format: cell-based
Description: as §1, §2

[5] = tested on: Streptococcus pneumoniae IMC B-1236 (PRSP); experiment: Antimicrobial activity test (MIC), clinical isolate IMC B-1236; format: cell-based
Description: as §1, §2

[6] = tested on: Streptococcus pneumoniae IMC B-0919 (PRSP); experiment: Antimicrobial activity test (MIC), clinical isolate IMC B-0919; format: cell-based
Description: as §1, §2

[7] = tested on: Streptococcus pneumoniae IMC B-1235 (PRSP); experiment: Antimicrobial activity test (MIC), clinical isolate IMC B-1235; format: cell-based
Description: as §1, §2

[8] = tested on: Streptococcus pneumoniae IMC B-1231 (PRSP); experiment: Antimicrobial activity test (MIC), clinical isolate IMC B-1231; format: cell-based
Description: as §1, §2

[9] = tested on: Streptococcus pneumoniae IMC B-1233 (PRSP); experiment: Antimicrobial activity test (MIC), clinical isolate IMC B-1233; format: cell-based
Description: as §1, §2

[10] = tested on: penicillin-resistant Streptococcus pneumoniae (PRSP); experiment: Anti-PRSP activity, overall statements on the clinical isolates; format: cell-based; details: statement in words
Description: as §1, §2
For the compounds of the present invention, MKT-1011, MKT-2003, MKT-3002 and MKT-3003, the antimicrobial activity was measured in the same way as in Experimental Example 1.

[11] = tested on: Streptococcus pneumoniae IMC B-0921 (PSSP); experiment: Antimicrobial activity test (MIC), clinical isolate IMC B-0921; format: cell-based
Description: as §1, §2

[12] = tested on: Streptococcus pneumoniae IMC B-1229 (PSSP); experiment: Antimicrobial activity test (MIC), clinical isolate IMC B-1229; format: cell-based
Description: as §1, §2

[13] = tested on: Streptococcus pneumoniae IMC B-1232 (PRSP); experiment: Antimicrobial activity test (MIC), clinical isolate IMC B-1232; format: cell-based
Description: as §1, §2

[14] = Streptococcus pneumoniae IMC B-1234, PRSP
[15] = Streptococcus pneumoniae IMC B-0922, PRSP
[16] = PRSP clinical isolate IMC B-0920
[17] = Streptococcus pneumoniae IMC B-0920, PRSP
[18] = PRSP clinical isolate IMC B-1236
[19] = Streptococcus pneumoniae IMC B-1236, PRSP
[20] = Streptococcus pneumoniae IMC B-0919, PRSP
[21] = PRSP clinical isolate IMC B-1235
[22] = Streptococcus pneumoniae IMC B-1235, PRSP
[23] = Streptococcus pneumoniae IMC B-1231, PRSP
[24] = PRSP clinical isolate IMC B-1234
[25] = PRSP clinical isolate IMC B-0922
[26] = PRSP clinical isolate IMC B-1233
[27] = PSSP clinical isolate IMC B-0921
[28] = PRSP clinical isolate IMC B-0919
[29] = PSSP clinical isolate IMC B-1229
[30] = PRSP clinical isolate IMC B-1232
[31] = PRSP clinical isolate IMC B-1231
[32] = Streptococcus pneumoniae IMC B-1233, PRSP
[33] = Streptococcus pneumoniae IMC B-0921, PSSP
[34] = Streptococcus pneumoniae IMC B-1229, PSSP
[35] = Streptococcus pneumoniae IMC B-1232, PRSP

Compound	MIC [1, 14]	MIC [2, 15]	MIC [4, 16]	MIC [4, 17] [µg/mL]	MIC [5, 18]	MIC [5, 19]	MIC [6, 20]	MIC [7, 21]	MIC [7, 22]	MIC [8, 23]	MIC [1, 24] [µg/mL]	MIC [2, 25] [µg/mL]	MIC [9, 26] [µg/mL]	anti-PRSP activity [10]	MIC [11, 27] [µg/mL]	MIC [6, 28] [µg/mL]	MIC [12, 29] [µg/mL]	MIC [13, 30] [µg/mL]	MIC [8, 31] [µg/mL]	also measured
CC[C@H]1OC(=O)CC[C@H](C)[C@@H](O[C@@H]2O[C@H](C)C[C@H](N(C)C)[C@H]2O)[C@@H](CC=O)C[C@@H](C)C(=O)/C=C/C(C)=C/[C@@H]1CO [DDMT, 3,4′-dideoxymycaminosyltylonolide, reference compound]	0.20 µg/mL and 0.39 µg/mL and 0.2 µg/mL	0.39 µg/mL and 0.20 µg/mL	0.2 µg/mL and 0.39 µg/mL and 0.20 µg/mL	0.39 (≈ 0.689 µM)	>50 µg/mL and 50 µg/mL and 25 µg/mL	50 µg/mL and >50 µg/mL	0.39 µg/mL and 0.20 µg/mL	>50 µg/mL and 50 µg/mL and 25 µg/mL	>50 µg/mL and 50 µg/mL	>50 µg/mL and 50 µg/mL										antimicrobial effect [3]: excellent antimicrobial effect
CCC1OC(=O)CCC(C)C(OC2OC(C)CC(N(C)C)C2O)C(CC=O)CC(C)C(=O)C=CC(C)=CC1COC(C)=O (stereo not drawn) [MKT-2002]			0.05 µg/mL (≈ 0.0823 µM)		12.5 µg/mL (≈ 20.6 µM)			25 µg/mL (≈ 41.1 µM)			0.1 (≈ 0.165 µM)	0.1 (≈ 0.165 µM)	0.05 (≈ 0.0823 µM)	high anti-PRSP activity	0.1 (≈ 0.165 µM)	0.1 (≈ 0.165 µM)	0.1 (≈ 0.165 µM)	0.05 (≈ 0.0823 µM)	0.39 (≈ 0.642 µM)	
CCC1OC(=O)CCC(C)C(OC2OC(C)CC(N(C)C)C2O)C(CC=O)CC(C)C(=O)C=CC(C)=CC1CN(C)Cc1ccccc1 (stereo not drawn) [MKT-3002]	<0.1 µg/mL	0.1 µg/mL (≈ 0.149 µM)	0.2 µg/mL (≈ 0.299 µM)	0.2 (≈ 0.299 µM)	3.13 µg/mL (≈ 4.68 µM)	3.13 µg/mL (≈ 4.68 µM)	0.1 µg/mL (≈ 0.149 µM)	3.13 µg/mL (≈ 4.68 µM)	3.13 µg/mL (≈ 4.68 µM)	50 µg/mL (≈ 74.7 µM)	<0.1	0.1 (≈ 0.149 µM)	0.1 (≈ 0.149 µM)	high anti-PRSP activity	0.1 (≈ 0.149 µM)	0.1 (≈ 0.149 µM)	0.1 (≈ 0.149 µM)	<0.025	50 (≈ 74.7 µM)	MIC [9, 32]: 0.1 µg/mL (≈ 0.149 µM); MIC [11, 33]: 0.1 µg/mL (≈ 0.149 µM); MIC [12, 34]: 0.1 µg/mL (≈ 0.149 µM); MIC [13, 35]: <0.025 µg/mL
CCC1OC(=O)CCC(C)C(OC2OC(C)CC(N(C)C)C2O)C(CC=O)CC(C)C(=O)C=CC(C)=CC1CSc1ccccn1 (stereo not drawn) [MKT-3003]	<0.025 µg/mL	<0.025 µg/mL	<0.025 µg/mL	<0.025	1.56 µg/mL (≈ 2.37 µM)	1.56 µg/mL (≈ 2.37 µM)	<0.025 µg/mL	1.56 µg/mL (≈ 2.37 µM)	1.56 µg/mL (≈ 2.37 µM)	50 µg/mL (≈ 75.9 µM)	<0.025	<0.025	<0.025	high anti-PRSP activity; also recorded: inhibited the growth of PRSP at remarkably low concentrations	<0.025	<0.025	0.1 (≈ 0.152 µM)	<0.025	50 (≈ 75.9 µM)	MIC [9, 32]: <0.025 µg/mL; MIC [11, 33]: <0.025 µg/mL; MIC [12, 34]: 0.1 µg/mL (≈ 0.152 µM); MIC [13, 35]: <0.025 µg/mL
CCC1OC(=O)CCC(C)C(OC2OC(C)CC(N(C)C)C2O)C(CC=O)CC(C)C(=O)C=CC(C)=CC1CNC(=O)c1ccccc1 (stereo not drawn) [MKT-3202]			0.2 µg/mL (≈ 0.299 µM)		6.25 µg/mL (≈ 9.34 µM)			0.1 µg/mL (≈ 0.15 µM)			<0.025	<0.025	<0.025	high anti-PRSP activity	<0.025	0.2 (≈ 0.299 µM)	<0.025	0.1 (≈ 0.15 µM)	0.05 (≈ 0.0748 µM)	
C=CCOCC1C=C(C)C=CC(=O)C(C)CC(CC=O)C(OC2OC(C)CC(N(C)C)C2O)C(C)CCC(=O)OC1CC (stereo not drawn) [MKT-3701]			0.2 µg/mL (≈ 0.33 µM)		12.5 µg/mL (≈ 20.6 µM)			12.5 µg/mL (≈ 20.6 µM)			0.1 (≈ 0.165 µM)	0.1 (≈ 0.165 µM)	0.05 (≈ 0.0825 µM)	high anti-PRSP activity	0.05 (≈ 0.0825 µM)	0.1 (≈ 0.165 µM)	0.05 (≈ 0.0825 µM)	0.05 (≈ 0.0825 µM)	3.13 (≈ 5.17 µM)	
CC[C@H]1OC(=O)CC[C@H](C)[C@@H](OC2OC(C)CC(N(C)C)C2O)[C@@H](CC=O)C[C@@H](C)C(=O)/C=C/C(C)=C/[C@@H]1COCOCc1ccccc1 (stereo partly drawn) [MKT-3703]														high anti-PRSP activity						MIC ([1]; Streptococcus pneumoniae, PRSP clinical isolate IMC B-1234, read-out: MIC): < 0.025 µg/mL; MIC ([2]; Streptococcus pneumoniae, PRSP clinical isolate IMC B-0922, read-out: MIC): < 0.025 µg/mL; MIC ([4]; Streptococcus pneumoniae, PRSP clinical isolate IMC B-0920, read-out: MIC): 0.025 µg/mL (≈ 0.0364 µM); MIC ([9]; Streptococcus pneumoniae, PRSP clinical isolate IMC B-1233, read-out: MIC): < 0.025 µg/mL; MIC ([5]; Streptococcus pneumoniae, PRSP clinical isolate IMC B-1236, read-out: MIC): 12.5 µg/mL (≈ 18.2 µM); MIC ([11]; Streptococcus pneumoniae, PSSP clinical isolate IMC B-0921, read-out: MIC): < 0.025 µg/mL; MIC ([6]; Streptococcus pneumoniae, PRSP clinical isolate IMC B-0919, read-out: MIC): < 0.025 µg/mL; MIC ([12]; Streptococcus pneumoniae, PSSP clinical isolate IMC B-1229, read-out: MIC): 0.1 µg/mL (≈ 0.146 µM); MIC ([7]; Streptococcus pneumoniae, PRSP clinical isolate IMC B-1235, read-out: MIC): 6.25 µg/mL (≈ 9.11 µM); MIC ([13]; Streptococcus pneumoniae, PRSP clinical isolate IMC B-1232, read-out: MIC): < 0.025 µg/mL; MIC ([8]; Streptococcus pneumoniae, PRSP clinical isolate IMC B-1231, read-out: MIC): 6.25 µg/mL (≈ 9.11 µM)
CCC1OC(=O)CCC(C)C(OC2OC(C)CC(N(C)C)C2O)C(CC=O)CC(C)C(=O)C=CC(C)=CC1CSc1ncccn1 (stereo not drawn) [MKT-3802]			<0.025 µg/mL		12.5 µg/mL (≈ 18.9 µM)			12.5 µg/mL (≈ 18.9 µM)			0.025 (≈ 0.0379 µM)	0.05 (≈ 0.0758 µM)	<0.025	high anti-PRSP activity	0.05 (≈ 0.0758 µM)	<0.025	0.05 (≈ 0.0758 µM)	<0.025	0.39 (≈ 0.591 µM)	
